“Also recorded” adds a separate entry of the source.
Tests used:
Type in all cases: in vivo
[1] = test system: GvHD in B10.BR (H2k) mice transplanted with TCD-BM+T cells; test: GvHD model: lethally irradiated B10.BR mice given TCD-BM plus 2×10^6 B6 T cells, daily ICA gavage
Protocol: Lethally irradiated B10.BR (H2k) mice were transplanted with 3×10^6 T cell depleted bone marrow cells (TCD-BM) alone or the combination of TCD-BM plus 2×10^6 purified T cells from B6 (H2b) donor mice. Mice received daily gavage with 100 mg/kg or 150 mg/kg ICA or vehicle through day 38 post-transplant. Survival and clinical manifestations of GvHD were monitored through day 62. Histopathology of the gut, cytokines in serum and colon homogenates, intracellular cytokine staining of donor T-cells and bacterial counts in mesenteric lymph nodes (using blood agar plates) were measured in a separate cohort of experimental mice euthanized on day 20. Additionally, a secondary transplant was conducted to test the allo-proliferative capacity (in vivo CFSE dilution assay) and GvHD activity of T-cells from spleens of mice in the TCD-BM+T cells+150 mg/kg ICA group that survived to day 62, compared to B6 T cells, in combination with fresh B6 TCD-BM, in B10.BR recipients.
They were fed vehicle, 100 mg/kg/day of ICA, or 150 mg/kg/day of ICA by oral gavage. Only 7% of the recipients of TCD-BM+T cells treated with vehicle only survived to day 46.

[2] = test system: GvHD in B10.BR mice administered TCDBM+T cells; test: GvHD model: 11Gy TBI B10.BR mice given TCDBM plus 3×10^6 allo-MHC mismatched C57Bl/6 T cells
Protocol: B6,B10.BR allo MHC mismatched transplants, administering 3×10^6 MHC mismatched donor T cells following myeloablative irradiation with 11Gy that injures gut epithelia. […] ICA (150 mg/kg/d) p.o. QD.
The gut microbiota contribute to GvHD, yet some Lactobacillus species, which produce ICA and related molecules, mitigate GvHD. Thus, depending on the composition of the microbiota, molecules derived from it might protect from GvHD or exacerbate it. ICA might limit GvHD, by regulating barrier integrity. A myeloablative dose of total body irradiation (TBI) (11Gy) was administered to B10.BR mice, an established murine model of GvHD, in which followed by transplantation of T cell depleted bone marrow (TCDBM) plus/or minus 3×10^6 allo-MHC mismatched T cells all from donor C57Bl/6 mice. Mice administered TCDBM+T cells consistently developed GvHD, increased apoptosis and crypt hyperplasia in the colon (e.g. FIG. 4C), bacterial dissemination to mesenteric lymph nodes (FIG. 4B), increased Th17 responses, and 90% lethality by 30 days (FIG. 4A). […] Thus, ICA protects against GvHD.

[3] = test system: radiation-induced enteritis in mice; test: Radiation enteritis: 12Gy TBI without BM transplant
Excerpt: Mice were subjected to 12Gy TBI without BM transplant, a lethal model in which most animals succumb to radiation-induced enteritis by about 7 days post-irradiation (p.i.), as opposed to hematopoietic failure at about 14 days p.i. […] (FIG. 5C). Thus, ICA reduced the death rate of both colonic and hematopoietic stem cells. […] While reduced intestinal damage and improved repair likely accounts at least in part for initial improvement in GvHD animals, additional effects on immune tolerance were also evident, but only over very long periods of administration (>3 months).

C. rodentium = test: Infectious colitis: ICA given to mice infected with C. rodentium
Protocol: Indoles were assessed in models of epithelial barrier integrity and immune regulation in mammals. Pathogenic E. coli (EPEC and EHEC) and the related mouse pathogen C. rodentium encode virulence factors and a Type III secretion system through the LEE pathogenicity island, and cause diarrhea and colitis. In vivo, C. rodentium causes infectious colitis, characterized by neutrophil and T cell infiltration into the lamina propria, transient increases in IL-22, epithelial barrier breakdown, crypt hyperplasia (an indicator of repair), and dissemination of bacteria throughout the body. […] Thus, indole derivatives, produced via commensal E. coli TnaA, mitigate pathogen infection. ICA was administered to mice that were infected with C. rodentium.

[4] = ICA-treated recipients of TCD-BM+T cells
[5] = mice infected with C. rodentium

SMILES: O=Cc1c[nH]c2ccccc12 [ICA, indole-3-carboxaldehyde]
- survival of recipients of TCD-BM+T cells ([1]; 100 mg/kg/day ICA oral gavage, at day 52, p=0.009): 20%
- survival of recipients of TCD-BM+T cells ([1]; 150 mg/kg/day ICA oral gavage, p<0.001): 83%
- levels of inflammatory cytokines [1, 4]: decreased levels of inflammatory cytokines
- thymopoiesis [1, 4]: improved thymopoiesis
- GvHD activity of recovered T cells in secondary B10.BR recipients ([1]; T cells recovered at day 62 from ICA-treated recipients): lack of GvHD activity
- proliferation of CFSE-stained T cells in secondary transplant ([1]; T cells recovered at day 62 from ICA-treated recipients, secondary B10.BR recipients): reduced proliferation
- GvHD mortality / survival, in words ([1]; daily doses of ICA, 100 or 150 mg/kg/day): improved survival in a dose-dependent manner; also recorded: reduces GvHD mortality in a dose-dependent manner
- engraftment by allogeneic donor bone marrow ([1]; fed to transplant recipients for the first few weeks after transplant): allows normal engraftment
- tolerability / toxicity ([1]; recipients of BM grafts without GvHD-causing T-cells): well tolerated without serious toxicity
- GvHD pathology, histological analysis of colonic tissue ([1]; vs vehicle-treated control animals): marked reduction of GvHD pathology
- bacterial colonization of mesenteric lymph nodes (MLN) ([1]; vs vehicle-treated control animals, p<0.01): decreased bacterial colonization; also recorded: reduce bacterial colonization
- bacterial dissemination to mesenteric lymph nodes ([2]; ICA p.o. 150 mg/kg QD): abrogated
- colon damage ([2]; ICA p.o. 150 mg/kg QD): abrogated
- effect on liver GvHD ([2]; ICA p.o. 150 mg/kg QD): without effect
- animals in which weight loss and death were prevented ([2]; ICA p.o. 150 mg/kg QD, animals receiving TCDBM+T cells): 90%
- tolerance of donor C57Bl/6 T cells to B10.BR antigens ([2]; after long-term treatment (50 days)): irreversibly and permanently tolerant
- response of donor T cells to allo-antigens other than B10.BR or C57Bl/6 ([2]; after long-term treatment (50 days), upon secondary transplantation): remain responsive
- survival of mice with transplanted allogeneic T cells ([2]; untreated animals all succumbed to GvHD): 90%
- mean survival time ([3]; 12Gy TBI without BM transplant, extended from 7 days): 12 days p.i.
- apoptotic cells in the colon ([3]; at 6 hr p.i.): fewer apoptotic cells; also recorded: decrease
- hematopoietic cells in the marrow ([3]; at 4 days p.i.): increased numbers; also recorded: enhances survival of hematopoietic progenitors
- survival from radiation, in words ([3]; no BM transplant): promotes survival
- survival (C. rodentium; ICA 150 mg/kg/d p.o., C. rodentium infected MyD88−/− mice, compared to vehicle): enhances survival
- barrier integrity (C. rodentium; [5]): maintained barrier integrity
- survival (C. rodentium; [5]): prolonged survival

Reference: US10154989B2, “Methods of managing graft versus host disease (GvHD) using indole carboxyaldehydes or derivatives thereof” (Emory University, priority 2015, dated 2018)
